From patent US7585895B2, “Therapeutic substituted cyclopentanes” (Allergan, Inc., priority 2005, dated 2009)

Experiments:
Format in all cases: cell-based
hFP = target: T1, hFP (Homo sapiens, UniProt P43088); test: FLIPR calcium signal, FP; details: HEK-293(EBNA)
T1 construct: expressed in transfected cells
Protocol: (§1) HEK-293(EBNA) cells, stably expressing one type or subtype of recombinant human prostaglandin receptors (prostaglandin receptors expressed: hDP/Gqs5; hEP1; hEP2/Gqs5; hEP3A/Gqi5; hEP4/Gqs5; hFP; hIP; hTP), were cultured in 100 mm culture dishes in high-glucose DMEM medium containing 10% fetal bovine serum, 2 mM 1-glutamine, 250 μg/ml geneticin (G418) and 200 μg/ml hygromycin B as selection markers, and 100 units/ml penicillin G, 100 μg/ml streptomycin and 0.25 μg/ml amphotericin B.
(§2) Cells were seeded at a density of 5×10^4 cells per well in Biocoat® Poly-D-lysine-coated black-wall, clear-bottom 96-well plates (Becton-Dickinson) and allowed to attach overnight in an incubator at 37° C. Cells were then washed two times with HBSS-HEPES buffer (Hanks Balanced Salt Solution without bicarbonate and phenol red, 20 mM HEPES, pH 7.4) using a Denley Cellwash plate washer (Labsystems). After 45 minutes of dye-loading in the dark, using the calcium-sensitive dye Fluo-4 AM at a final concentration of 2 μM, plates were washed four times with HBSS-HEPES buffer to remove excess dye leaving 100 μl in each well. Plates were re-equilibrated to 37° C. for a few minutes.
(§3) Cells were excited with an Argon laser at 488 nm, and emission was measured through a 510-570 nm bandwidth emission filter (FLIPR™, Molecular Devices, Sunnyvale, Calif.). Drug solution was added in a 50 μl volume to each well to give the desired final concentration. The peak increase in fluorescence intensity was recorded for each well. On each plate, four wells each served as negative (HBSS-HEPES buffer) and positive controls (standard agonists: BW245C (hDP); PGE2 (HEP1; hEP2/Gqs5; hEP3A/Gqi5; hEP4/Gqs5); PGF2α (hFP); carbacyclin (hIP); U-46619 (hTP), depending on receptor). The peak fluorescence change in each drug-containing well was then expressed relative to the controls.
(§4) Compounds were tested in a high-throughput (HTS) or concentration-response (CoRe) format. In the HTS format, forty-four compounds per plate were examined in duplicates at a concentration of 10^−5 M. To generate concentration-response curves, four compounds per plate were tested in duplicates in a concentration range between 10^−5 and 10^−11 M. The duplicate values were averaged. In either, HTS or CoRe format each compound was tested on at least 3 separate plates using cells from different passages to give an n≧3.

EP2 = EP2 (Homo sapiens, UniProt P43116); test: cAMP assay, HEK-EBNA cells expressing EP2; set-up: expressed in transfected cells; host or cells: HEK-EBNA; details: value in parentheses in EP2 column, read-out: EP2 EC50 (nM), measurement of cAMP (data in parentheses)
Sequence of EP2 (P43116 whole entry): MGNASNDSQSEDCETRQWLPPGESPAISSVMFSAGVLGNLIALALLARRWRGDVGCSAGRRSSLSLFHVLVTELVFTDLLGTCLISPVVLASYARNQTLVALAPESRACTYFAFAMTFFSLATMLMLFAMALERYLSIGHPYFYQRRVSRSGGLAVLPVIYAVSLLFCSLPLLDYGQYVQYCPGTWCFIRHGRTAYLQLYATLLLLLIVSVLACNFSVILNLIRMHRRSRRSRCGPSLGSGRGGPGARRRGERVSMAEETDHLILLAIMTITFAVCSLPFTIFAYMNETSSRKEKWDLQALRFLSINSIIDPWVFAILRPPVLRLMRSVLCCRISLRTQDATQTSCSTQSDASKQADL
Protocol: A 384-well drug plate was prepared to contain 6 test compounds, PGE2 and cAMP in 16 serial dilutions in triplicate, using a Biomek station. HEK-EBNA cells expressing a target PG receptor subtype (EP2 or EP4) were suspended in a stimulation buffer (HBSS, 0.1% BSA, 0.5 mM IBMX and 5 mM HEPES, pH 7.4) in a density of 10^4 cells/5 μl. The reaction was initiated by mixing 5 μL drug dilutions with 5 μl of HEK-EBNA cells in a well, carried out for 30 min at room temperature, and followed by the addition of 5 μl anti-cAMP acceptor beads in the control buffer with Tween-20 (25 mM NaCl, 0.03% Tween-20, 5 mM HEPES, pH7.4). After 30 min in the dark at room temperature, the mixtures were incubated with 15 μl biotinylated-cAMP/strepavidin donor beads in Lysis/Detection buffer (0.1% BSA, 0.3% Tween-20 and 5 mM HEPES, pH7.4) for 45 min at the room temperature. Fluorescence changes were read using a Fusion-alpha HT microplate reader.

hIP = target: T2, hIP (Homo sapiens, UniProt P43119); test: FLIPR calcium signal, IP; details: HEK-293(EBNA); for EC50: read-out: Ca2+ Signal-EC50 (nM) IP
T2 construct: expressed in transfected cells
T2 sequence (P43119 whole entry): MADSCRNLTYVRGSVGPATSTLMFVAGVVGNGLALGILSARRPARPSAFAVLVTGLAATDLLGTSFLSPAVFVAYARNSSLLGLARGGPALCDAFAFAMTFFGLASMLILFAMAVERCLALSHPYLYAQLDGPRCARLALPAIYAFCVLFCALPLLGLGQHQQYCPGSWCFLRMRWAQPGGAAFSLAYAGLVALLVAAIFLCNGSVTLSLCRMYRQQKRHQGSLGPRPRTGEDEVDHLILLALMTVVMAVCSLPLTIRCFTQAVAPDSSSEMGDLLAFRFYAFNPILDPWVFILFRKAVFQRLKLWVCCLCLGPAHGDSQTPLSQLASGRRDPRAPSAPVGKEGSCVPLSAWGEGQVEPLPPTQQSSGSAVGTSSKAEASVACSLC
Protocol: as §1, §2, §3, §4

T1 sequence (P43088 whole entry): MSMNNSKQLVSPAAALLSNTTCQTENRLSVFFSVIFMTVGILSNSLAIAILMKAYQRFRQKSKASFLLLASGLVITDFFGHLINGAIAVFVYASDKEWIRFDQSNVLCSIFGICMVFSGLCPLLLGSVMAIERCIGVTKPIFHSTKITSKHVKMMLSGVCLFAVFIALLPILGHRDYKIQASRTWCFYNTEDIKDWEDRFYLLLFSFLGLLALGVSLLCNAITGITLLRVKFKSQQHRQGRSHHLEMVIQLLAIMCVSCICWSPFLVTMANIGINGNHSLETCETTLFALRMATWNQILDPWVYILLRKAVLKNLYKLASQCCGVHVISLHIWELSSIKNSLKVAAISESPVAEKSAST

SMILES	Ca2+ Signal-EC50 (nM) FP (hFP)	EC50 (EP2)	EC50 (hIP)	Ca2+ Signal-EC50 (nM) IP (hIP)
CCCCC(O)c1cccc([C@@H]2[C@@H](C/C=C\CCCC(=O)O)[C@H](Cl)C[C@H]2O)c1 (stereo partly drawn) [Entry 30, (Z)-7-{(1R,2S,3R,5R)-5-Chloro-3-hydroxy-2-[3-(1-hydroxy-pentyl)-phenyl]-cyclopentyl}-hept-5-enoic acid]	not active	10 nM	2060 nM	
CCCCCC(O)c1ccc([C@@H]2[C@@H](C/C=C\CCCC(=O)O)[C@@H](Cl)C[C@H]2O)cc1 (stereo partly drawn) [Entry 9, (Z)-7-{(1R,2S,3R,5S)-5-Chloro-3-hydroxy-2-[4-(1-hydroxy-hexyl)-phenyl]-cyclopentyl}-hept-5-enoic acid]	not active	324 nM	6880 nM	
CCCCCC(O)c1cccc([C@@H]2[C@@H](C/C=C\CCCC(=O)O)[C@H](Cl)C[C@H]2O)c1 (stereo partly drawn) [Entry 29, (Z)-7-{(1R,2S,3R,5R)-5-Chloro-3-hydroxy-2-[3-(1-hydroxy-hexyl)-phenyl]-cyclopentyl}-hept-5-enoic acid]	not active	38 nM	8490 nM	
CCCCCCc1ccc([C@@H]2[C@@H](C/C=C\CCCC(=O)O)[C@H](Cl)C[C@H]2O)cc1 [Entry 33, (Z)-7-[(1R,2S,3R,5R)-5-Chloro-2-(4-hexyl-phenyl)-3-hydroxy-cyclopentyl]-hept-5-enoic acid]	not active	27 nM		not active
CCCCCCC(O)c1ccc([C@@H]2[C@@H](C/C=C\CCCC(=O)O)[C@H](Cl)C[C@H]2O)cc1 (stereo partly drawn) [Entry 25, (Z)-7-{(1R,2S,3R,5R)-5-Chloro-3-hydroxy-2-[4-(1-hydroxy-heptyl)-phenyl]-cyclopentyl}-hept-5-enoic acid]	not active	12 nM		not active
CC(C)(C)CCCC(O)c1ccc([C@@H]2[C@@H](CCCCCCC(=O)O)[C@H](Cl)C[C@H]2O)cc1 (mixture of isomers) [Entry 20, 7-{(1R,2S,3R,5R)-5-Chloro-3-hydroxy-2-[4-(1-hydroxy-5,5-dimethyl-hexyl)-phenyl]-cyclopentyl}-heptanoic acid]	not active	> 10000 nM		not active
O=C(O)CCCCCC[C@@H]1[C@@H](c2ccc(C(O)CCc3ccccc3)cc2)[C@H](O)C[C@H]1Cl (stereo partly drawn) [Entry 24, 7-{(1R,2S,3R,5R)-5-Chloro-3-hydroxy-2-[4-(1-hydroxy-3-phenyl-propyl)-phenyl]-cyclopentyl}-heptanoic acid]	not active	628 nM		not active
O=C(O)CCC/C=C\C[C@@H]1[C@@H](c2ccc(C(O)c3ccccc3)cc2)[C@H](O)C[C@H]1Cl (stereo partly drawn) [Entry 28, (Z)-7-{(1R,2S,3R,5R)-5-Chloro-3-hydroxy-2-[4-(hydroxy-phenyl-methyl)-phenyl]-cyclopentyl}-hept-5-enoic acid]	not active	9 nM	1650 nM	
CCCCCC(O)c1ccc([C@@H]2[C@@H](C/C=C\CCCC(=O)O)[C@H](F)C[C@H]2O)cc1 (mixture of isomers) [Entry 8, (Z)-7-{(1R,2S,3R,5R)-5-Fluoro-3-hydroxy-2-[4-(1-hydroxy-hexyl)-phenyl]-cyclopentyl}-hept-5-enoic acid]	not active	8 nM	10100 nM	
CCCCCC(O)c1ccc([C@@H]2[C@@H](CCCc3ccc(C(=O)O)s3)[C@H](Cl)C[C@H]2O)cc1 (stereo partly drawn) [Entry 2, 5-(3-{(1R,2S,3R,5R)-5-Chloro-3-hydroxy-2-[4-(1-hydroxy-hexyl)-phenyl]-cyclopentyl}-propyl)-thiophene-2-carboxylic acid]	not active	2 nM		not active
CCCCCC(O)c1ccc([C@@H]2[C@@H](C/C=C\CCCC(=O)O)[C@H](Cl)C[C@H]2O)cc1 (single isomer, unassigned) [Entry 13]	not active	3 nM		not active
O=C(O)CCC/C=C\C[C@@H]1[C@@H](c2ccc(C(O)CC3CCCCC3)cc2)[C@H](O)C[C@H]1Cl (mixture of isomers) [Entry 17, (Z)-7-{(1R,2S,3R,5R)-5-Chloro-2-[4-(2-cyclohexyl-1-hydroxy-ethyl)-phenyl]-3-hydroxy-cyclopentyl}-hept-5-enoic acid]	not active	495 nM		not active
O=C(O)CCC/C=C\C[C@@H]1[C@@H](c2ccc(C(O)CCC3CCCCC3)cc2)[C@H](O)C[C@H]1Cl (stereo partly drawn) [Entry 15, (Z)-7-{(1R,2S,3R,5R)-5-Chloro-2-[4-(3-cyclohexyl-1-hydroxy-propyl)-phenyl]-3-hydroxy-cyclopentyl}-hept-5-enoic acid]	not active	176 nM		not active
O=C(O)CCCCCC[C@@H]1[C@@H](c2ccc(C(O)CC3CCCCC3)cc2)[C@H](O)C[C@H]1Cl (stereo partly drawn) [Entry 18, 7-{(1R,2S,3R,5R)-5-Chloro-2-[4-(2-cyclohexyl-1-hydroxy-ethyl)-phenyl]-3-hydroxy-cyclopentyl}-heptanoic acid]	not active	2660 nM		not active
O=C(O)CCCCCC[C@@H]1[C@@H](c2ccc(C(O)Cc3ccccc3)cc2)[C@H](O)C[C@H]1Cl (stereo partly drawn) [Entry 22, 7-{(1 R,2S,3R,5R)-5-Chloro-3-hydroxy-2-[4-(1-hydroxy-2-phenyl-ethyl)-phenyl]-cyclopentyl}-heptanoic acid]	not active	59 nM		not active
CCCCCC(O)c1ccc([C@@H]2[C@@H](Cc3cccc(CCC(=O)O)c3)[C@H](Cl)C[C@H]2O)cc1 (stereo partly drawn) [Entry 3, 3-(3-{(1R,2S,3R,5R)-5-Chloro-3-hydroxy-2-[4-(1-hydroxy-hexyl)-phenyl]-cyclopentylmethyl}-phenyl)-propionic acid]	not active	56 nM		not active
CCCCCC(O)c1ccc([C@@H]2[C@@H](CCCCCCC(=O)O)[C@H](Cl)C[C@H]2O)cc1 (stereo partly drawn) [Entry 14, 7-{(1R,2S,3R,5R)-5-Chloro-3-hydroxy-2-[4-(1-hydroxy-hexyl)-phenyl]-cyclopentyl}-heptanoic acid]	not active	76 nM		not active
CCCC(O)c1ccc([C@@H]2[C@@H](C/C=C\CCCC(=O)O)[C@H](Cl)C[C@H]2O)cc1 (stereo partly drawn) [Entry 26, (Z)-7-{(1R,2S,3R,5R)-5-Chloro-3-hydroxy-2-[4-(1-hydroxy-butyl)-phenyl]-cyclopentyl}-hept-5-enoic acid]	not active	7 nM		not active
O=C(O)CCC/C=C\C[C@@H]1[C@@H](c2ccc(C(O)Cc3ccccc3)cc2)[C@H](O)C[C@H]1Cl (mixture of isomers) [Entry 21, (Z)-7-{(1R,2S,3R,5R)-5-Chloro-3-hydroxy-2-[4-(1-hydroxy-2-phenyl-ethyl)-phenyl]-cyclopentyl}-hept-5-enoic acid]	not active	14 nM		not active
